According to patent US20130079749A1, “Modular Drug Delivery System for Minimizing Trauma During and After Insertion of a Cochlear Lead” (ADVANCED BIONICS, LLC, priority 2007, published 2013):

Tests used:
[1] = Solubility of dexamethasone forms; format: physicochemical
[2] = In-vivo comparison of DXMb and DEX salt delivered over a week
Protocol: In one study performed by the Applicants, a comparison of DXMb and DEX salt was performed in an in-vivo model over the prior of a week. […] This surprising potency allows for increased therapeutic effects without increasing the volume of the drug or the size of the intracochlear lead.

auditory hair cells = assay: Organ of Corti photomicrographs thirty days after electrode insertion trauma; format: in vivo, guinea pig; conditions: lower middle turn of cochlea, thirty days after EIT, FIG. 11 microphotograph D
Excerpt: The efficacy of DXMb was also studied by the Applicants in relationship to preserving residual hearing and internal nerve structures within the cochlea. In the study performed by the Applicants, 88 ears of 44 pigmented guinea pigs of 250 to 300 grams were randomly assigned to one of four groups as follows: group 1 corresponded to the contralateral, unoperated ears from groups 2 to 4 animals (n=44). Group 2 (n=15): electrode insertion trauma (EIT); these ears underwent EIT only via a cochleostomy and then immediate closure. Group 3 (n=15): EIT+artificial perilymph (EIT+AP) treated ears received EIT and immediately after trauma, insertion of a microcatheter into the cochleostomy site with AP perfused into the scala tympani (ST) for a period of 8 days. Group 4 (n=14): EIT dexamethasone base (EIT=DXMb) treated animals underwent EIT followed immediately by insertion of a microcatheter into the cochleostomy with ST perfusion of DXMb ([…]) in AP for a period of 8 days. Hearing measurements were performed before surgery, as well as on post-EIT days 0, 3, 7, 14, and 30. Tone bursts of 0.5, 1, 4, and 16 kHz were delivered to the ear at a rate of 29 Hz. The intensity of the stimulation was decreased by 10 dB sound pressure level (SPL) decrements until no auditory brainstem response was identified.
The organization of hair cells is in three distinct rows. […]

With `C[C@@H]1C[C@H]2[C@@H]3CCC4=CC(=O)C=C[C@]4(C)[C@@]3(F)[C@@H](O)C[C@]2(C)[C@@]1(O)C(=O)CO` [DXMb, dexamethasone base] the “solubility in aqueous preparations” value ([1]; aqueous preparations) was “limited solubility in aqueous preparations”, the “solubility in organic solvents” value ([1]; organic solvents) was “highly soluble in organic solvents” and the “effectiveness compared with DEX salt” value ([2]; DXMb 1 μL/hr at 70 μL/ml vs DEX salt 100 μL/ml at 1 μL/hr, in-vivo model, one week) was “just as effective”. For the same molecule, the “potency compared with salt forms of dexamethasone” value ([2]; administered into the intracochlear space after implantation surgeries) was “surprisingly more potent than salt forms of dexamethasone” and the “hair cells and hair cell structure” value (auditory hair cells) was “substantially similar to that of the control group”.
